Data taken from ChEMBL document CHEMBL5380875, “Discovery of a Potent and Oral Available Complex I OXPHOS Inhibitor That Abrogates Tumor Growth and Circumvents MEKi Resistance” (J Med Chem, 2023).
pIC50: −log10 of the molar value. Active and inactive are the calls of the source. The calls are words filed in the database; no cut-off is given here.

Legend:
[1] = Toxicity in mouse xenografted with human NCI-H460 cells with high-OXPHOS assessed as reduction in serum ALT level at 30 mg/kg, po bid administered for 18 days; type: organism-based; conditions: in vivo, 432 h, time 18 day
[2] = Cmax in ICR mouse at 10 mg/kg, po measured for 24 hrs by LC-MS/MS analysis; type: ADME, organism-based; design: time 24 hrs, dose 10 mg/kg, route po; conditions: in vivo
NCI-H460 [3] = assay: Inhibition of mitochondrial respiration in human NCI-H460 cells with high-OXPHOS assessed as reduction in maximal oxygen consumption rate incubated for 12 hrs by seahorse XF96 flux analyzer; type: functional, cell-based; conditions: dose 50-200 nM
A549 [4] = assay: Induction of apoptosis in human Trametinib-resistant A549 cells with high-OXPHOS harboring KRAS G12S mutant assessed as early apoptotic cells at 20 nM incubated for 72 hrs in presence of trametinib by Annexin V-FITC/propidium iodide staining based flow cytometry analysis (reference value: 4.31%); type: functional
NCI-H460 [5] = assay: Induction of apoptosis in human NCI-H460 cells with high-OXPHOS assessed as early apoptotic cells at 30 nM incubated for 48 hrs by Annexin V-FITC/propidium iodide staining based flow cytometry analysis (reference value: 3.55%); type: functional
Cytochrome P450 1A2 = biological target: T1, Cytochrome P450 1A2 (Homo sapiens, UniProt P05177); assay: Inhibition of CYP1A2 in human liver microsomes; type: ADME, Microsome
T1 sequence (P05177 whole entry): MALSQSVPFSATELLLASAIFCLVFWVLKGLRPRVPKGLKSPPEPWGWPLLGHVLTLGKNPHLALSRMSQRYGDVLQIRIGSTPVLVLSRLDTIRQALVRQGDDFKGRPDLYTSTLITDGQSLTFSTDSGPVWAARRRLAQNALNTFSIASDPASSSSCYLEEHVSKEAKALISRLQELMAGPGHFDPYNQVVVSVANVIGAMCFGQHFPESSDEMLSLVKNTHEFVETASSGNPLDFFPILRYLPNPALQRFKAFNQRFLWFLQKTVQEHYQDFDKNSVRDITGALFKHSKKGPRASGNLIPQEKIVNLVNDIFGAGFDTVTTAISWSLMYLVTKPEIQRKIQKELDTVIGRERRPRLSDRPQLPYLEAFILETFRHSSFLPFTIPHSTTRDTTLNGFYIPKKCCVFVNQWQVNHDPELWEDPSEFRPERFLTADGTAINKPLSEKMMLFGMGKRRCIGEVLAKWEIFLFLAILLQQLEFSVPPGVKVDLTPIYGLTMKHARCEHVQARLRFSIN

[6] = Toxicity in mouse xenografted with human NCI-H460 cells with high-OXPHOS assessed as reduction in serum BUN level at 30 mg/kg, po bid administered for 18 days; type: organism-based; conditions: in vivo, 432 h, time 18 day
NCI-H460 [7] = assay: Inhibition of mitochondrial complex III in human NCI-H460 cells at 1 uM incubated for 12 hrs by seahorse XF96 metabolic flux analyzer relative to control; type: cell-based
NCI-H441 [8] = assay: Inhibition of mitochondrial respiration in human NCI-H441 cells with high-OXPHOS assessed as reduction in maximal oxygen consumption rate incubated for 12 hrs by seahorse XF96 flux analyzer; type: functional, cell-based; conditions: dose 50-200 nM
NCI-H460 [9] = assay: Inhibition of mitochondrial complex I NADH-ubiquinone oxidoreductase in human NCI-H460 cells at 1 uM incubated for 12 hrs by seahorse XF96 metabolic flux analyzer relative to control; type: cell-based
A549 [10] = assay: Induction of apoptosis in human Trametinib-resistant A549 cells with high-OXPHOS harboring KRAS G12S mutant assessed as late apoptotic cells at 20 nM incubated for 72 hrs by Annexin V-FITC/propidium iodide staining based flow cytometry analysis (reference value: 4.27%); type: functional
NCI-H441 [11] = assay: Inhibition of colony formation in human NCI-H441 cells with high-OXPHOS harboring KRAS G12V mutant incubated for 10 to 14 days in presence of trametinib by crystal violet staining based analysis; type: functional, cell-based; conditions: time 10-14 day
Cytochrome P450 2C19 = Cytochrome P450 2C19 (Homo sapiens, UniProt P33261); assay: Inhibition of CYP2C19 in human liver microsomes; type: ADME, Microsome
Chain of Cytochrome P450 2C19 (P33261 whole entry): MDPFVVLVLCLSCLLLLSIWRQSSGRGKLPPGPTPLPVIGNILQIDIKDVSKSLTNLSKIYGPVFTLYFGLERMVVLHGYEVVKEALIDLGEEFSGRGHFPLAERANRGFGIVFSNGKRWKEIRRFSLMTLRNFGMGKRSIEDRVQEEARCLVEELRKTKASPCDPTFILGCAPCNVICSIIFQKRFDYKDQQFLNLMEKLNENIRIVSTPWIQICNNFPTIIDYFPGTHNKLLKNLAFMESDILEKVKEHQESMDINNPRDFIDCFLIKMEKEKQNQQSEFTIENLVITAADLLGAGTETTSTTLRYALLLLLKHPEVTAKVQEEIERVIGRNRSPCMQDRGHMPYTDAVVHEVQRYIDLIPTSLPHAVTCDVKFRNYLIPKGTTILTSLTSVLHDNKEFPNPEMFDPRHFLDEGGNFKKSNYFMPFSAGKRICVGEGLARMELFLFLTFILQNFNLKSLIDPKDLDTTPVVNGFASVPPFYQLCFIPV

[12] = Apparent volume of distribution in ICR mouse at 1 mg/kg, iv measured for 24 hrs by LC-MS/MS analysis; type: ADME, organism-based; conditions: in vivo, read-out: Vz
A549 [13] = assay: Potentiation of trametinib-induced cytotoxicity against human Trametinib-resistant A549 cells with high-OXPHOS harboring KRAS G12S mutant assessed as reduction in cell viability at 10 to 20 uM incubated for 72 hrs by CellTiter 96 cell proliferation assay; type: functional, cell-based; conditions: dose 10-20 µM
NCI-H358 [14] = assay: Antiproliferative activity against human NCI-H358 cells with low-OXPHOS assessed as reduction in cell viability incubated for 5 days by CellTiter 96 cell proliferation assay; type: functional, cell-based; conditions: NCI-H358, 120 h
[15] = Toxicity in mouse xenografted with human NCI-H460 cells with high-OXPHOS assessed as pathological changes in heart at 30 mg/kg, po bid administered for 18 days by H and E staining based analysis; type: organism-based; conditions: in vivo, 432 h, time 18 day
[16] = AUC (0 to 24 hrs) in ICR mouse at 10 mg/kg, po measured for 24 hrs by LC-MS/MS analysis; type: ADME, organism-based; design: time 24 hrs, dose 10 mg/kg, route po; conditions: in vivo
[17] = Cytotoxicity against human HPNE cells assessed as reduction in cell viability incubated for 5 days by CellTiter 96 cell proliferation assay; type: toxicity, cell-based
NCI-H460 [18] = assay: Induction of apoptosis in human NCI-H460 cells with high-OXPHOS harboring KRAS Q61H mutant assessed as late apoptotic cells at 20 nM incubated for 72 hrs in presence of trametinib by Annexin V-FITC/propidium iodide staining based flow cytometry analysis (reference value: 5.68%); type: functional
NCI-H358 [19] = assay: Inhibition of mitochondrial respiration in human NCI-H358 cells with low-OXPHOS assessed as reduction in oxygen consumption rate at 50 to 200 nM incubated for 12 hrs by seahorse XF96 flux analyzer; type: functional, cell-based; conditions: dose 50-200 nM
[20] = Toxicity in mouse xenografted with human NCI-H460 cells with high-OXPHOS assessed as pathological changes in liver at 30 mg/kg, po bid administered for 18 days by H and E staining based analysis; type: organism-based; conditions: in vivo, 432 h, time 18 day
[21] = Cytotoxicity against human MRC5 cells assessed as reduction in cell viability incubated for 5 days by CellTiter 96 cell proliferation assay; type: toxicity, cell-based
NCI-H441 [22] = assay: Antiproliferative activity against human NCI-H441 cells with high-OXPHOS assessed as reduction in cell viability incubated for 5 days by CellTiter 96 cell proliferation assay; type: functional, cell-based; conditions: NCI-H441, 120 h
[23] = MRT (0 to 24 hrs) in ICR mouse at 10 mg/kg, po measured for 24 hrs by LC-MS/MS analysis; type: ADME, organism-based; conditions: in vivo
NCI-H460 [24] = assay: Antitumor activity against human NCI-H460 cells with high-OXPHOS xenografted in mouse assessed as reduction in trametinib-induced oxidative phosphorylation at 30 mg/kg, po bid administered for 18 days; type: functional, organism-based; conditions: time 18.0 day
A549 [25] = assay: Inhibition of colony formation in human Trametinib-resistant A549 cells with high-OXPHOS harboring KRAS G12S mutant incubated for 10 to 14 days in presence of trametinib by crystal violet staining based analysis; type: functional, cell-based; conditions: time 10-14 day
NCI-H460 [26] = assay: Antitumor activity against human NCI-H460 cells with high-OXPHOS xenografted in mouse assessed as tumor growth inhibition at 30 mg/kg, po bid administered for 18 days and measured every 3 days by electronic caliper analysis; type: functional, organism-based; conditions: time 18.0 day

Cc1c(C(=O)N2CCN(Cc3ccc(OCC(F)(F)F)cc3)CC2)nnn1Cc1ccc(C(=O)Nc2ccc(C(F)(F)F)cc2)nc1
Activity [1]: Non-Toxic | Cmax [2]: 618 ng/mL | inhibition (NCI-H460 [3]): Dose-Dependent Effect | Activity (A549 [4]): 31% | Activity (NCI-H460 [5]): 7.08% | pIC50 (Cytochrome P450 1A2): < 4.30 | Activity [6]: Non-Toxic | inhibition (NCI-H460 [7]): 28.1% | inhibition (NCI-H441 [8]): Dose-Dependent Effect | inhibition (NCI-H460 [9]): 77.6% | Activity (A549 [10]): 7.45% | inhibition (NCI-H441 [11]): Active | pIC50 (Cytochrome P450 2C19): < 4.30 | Vd [12]: 9.34 L/kg | Activity (A549 [13]): Active | pIC50 (NCI-H358 [14]): < 6.00 | Activity [15]: Non-Toxic | AUC(0-t) at 24 h [16]: 2170 ng·h/mL | IC50 at 5 days [17]: > 10 µM | Activity (NCI-H460 [18]): 34.1% | inhibition (NCI-H358 [19]): inactive | Activity [20]: Non-Toxic | IC50 at 5 days [21]: > 10 µM | pIC50 (NCI-H441 [22]): 7.53 | MRT last at 24 h [23]: 3 h | Activity (NCI-H460 [24]): Active | inhibition (A549 [25]): Active | inhibition (NCI-H460 [26]): Active
